According to patent publication US20030199671A1, “Binding molecules for Fc-region polypeptides” (priority 2001, published 2003):
Positions of bridges follow the written chain, without caps; N, C: chain ends. Residues, ends and D or L forms follow the SMILES beside them.

How the values were obtained:
human Fc fragments = assay: Mini-chromatography column capture from PBST; type: binding; conditions: 350 μl column, Fc spiked into PBST, pH 7.2
Method: (§1) For these experiments, 350 μl columns (3×50 mm) were packed with each media. The columns were tested with human Fc fragments or human IgG1 (Calbiochem, 401104 and 400120 respectively) spiked into PBST, pH 7.2 at a concentration of 0.5 g/l. 65 μg of Fc was loaded onto each column. After loading, the columns were washed with PBST, pH 7.2, eluted with 30 mM H3PO4, 150 mM NaCl, pH 2.0 and cleaned with 0.1M CAPS, pH 11.5 buffer (3-[Cyclohexylamino]-1-propane-sulfonic acid). Fractions collected were immediately neutralized to pH ˜7.2 with 2.0 M Tris, pH 8.0. All column operations were conducted at 200 μl/min (170 cm/hr).

hIgG1 = target: T1, hIgG1 (Homo sapiens, UniProt P01857); assay: Mini-chromatography column binding (dynamic conditions); conditions: 350 μl column, human IgG1 spiked into PBST, pH 7.2
T1 construct: purchased Calbiochem 400120; host or cells: human myeloma patients
T1 sequence (P01857 1-330 isoform P01857-1): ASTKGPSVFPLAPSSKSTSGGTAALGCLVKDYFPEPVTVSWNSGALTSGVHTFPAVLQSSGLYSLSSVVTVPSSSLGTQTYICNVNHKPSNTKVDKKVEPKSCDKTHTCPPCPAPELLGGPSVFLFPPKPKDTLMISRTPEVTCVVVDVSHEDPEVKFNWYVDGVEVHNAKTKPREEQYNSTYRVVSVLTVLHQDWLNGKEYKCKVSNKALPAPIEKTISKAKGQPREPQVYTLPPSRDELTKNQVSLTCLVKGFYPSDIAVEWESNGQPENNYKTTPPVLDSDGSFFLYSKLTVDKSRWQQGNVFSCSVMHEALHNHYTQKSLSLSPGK
Method: (§2) Thus, 250 μg of target (hIgG1, hIgG2, hIgG3, hIgG4, goat IgG and bovine IgG) at 0.250 mg/ml in PBST, pH 7.2 or TBST, pH 7.3 was loaded onto a 350 μl column (3×50 mm) run at 0.200 ml/min. flowrate (170 cm/hr). Flowthrough, elution and cleaning fractions were collected and assayed for total protein recovery by size-exclusion HPLC. Percentage mass balance was also determined to be 90-100% on average.
as §1

human IgG1 = target: T2, human IgG1 (Homo sapiens, UniProt P01857); assay: Column capture out of tobacco extract; type: binding; conditions: from tobacco extract, size exclusion HPLC
T2 construct: all human subtypes derived from myeloma patients; purchased Calbiochem 400120; host or cells: myeloma patients
T2 sequence (P01857 1-330 isoform P01857-1): as above
Method: The ability of affinity media based on DX253 to capture human Fc and human IgG1 out of tobacco extract was evaluated in separate experiments. The tobacco extract used was a representative concentration blank lot (CropTech, lot NV100-136). Human Fc or IgG1 was spiked into the tobacco extract at 50 μg/ml. 100 μg (2 ml) was loaded onto a 350 μl column packed the DX253 media at 200 μl/min. (170 cm/hr.). Prior to loading, the column had been equilibrated with 50 mM Tris buffer containing 150 mM NaCl and 0.01% Tween 20, pH 7.3 (TBST, pH 7.3). After loading, the column was washed with 50 mM Tris buffer containing 1M NaCl, pH 7.3 followed by elution with 30 mM H3PO4, 150 mM NaCl, pH 2.0. The column was then cleaned with 0.1 M CAPS, pH 11.5 and separately with 30% isopropanol, 5% acetic acid in water, ˜pH 2.7. Collected fractions were neutralized immediately with 2M Tris, pH 8, prior to analysis by size exclusion HPLC.

polyclonal human IgG = assay: DX253 column re-use: total dynamic binding capacity
Method: DX253 peptide was immobilized onto NHS-activated 4 Fast Flow to a ligand density of 2.9 μmole/ml as determined by quantitative amino acid analysis. This affinity resin was packed into a 4.6 mm×6 cm (internal diam.×length, 1.0 ml bed volume) PEEK column (Isolation Technologies, Inc., 5050IP-08046-006-20).
To establish total dynamic binding capacity, polyclonal human IgG (ICN, 55908) was prepared in PBS, pH 7.2 containing 0.05% NaN3 at 2.5 mg/ml. A total of 75 mg (30 ml) was loaded at 0.21 ml/minute (75 cm/hr) to capacity (until the absorbance at 280 nm of the load was equivalent to that of the column flowthrough). Fractions were collected across the entire run. Unbound IgG was washed to baseline at 0.42 ml/minute (150 cm/hour) with PBS, pH 7.2. Bound IgG was eluted with 0.1M citrate, pH 3.0 buffer and immediately neutralized with minimal addition of 1M HEPES, pH 9.0 buffer to ˜pH 7.0. […] All post-load wash, elution and cleaning steps were performed at a flow rate of 0.42 ml/minute (150 cm/hour). Total mg IgG bound was determined by measuring the absorbance at 280 nm of the elution fraction calculated using an extinction coefficicent of 1.4. Initial (T=0, prior to initiating column cycling) total dynamic capacity measured 19.8 mg human IgG per ml affinity resin. […] Mass balance recovery for these 5 total capacity determinations averaged 98%. […] The column retained approximately 90% relative performance with respect to total dynamic capacity after 95 cycles.

goat IgG = assay: Mini-chromatography column binding (dynamic conditions); conditions: 250 μg target, 170 cm/hr
Method: as §2

bovine IgG = assay: as above; conditions: 250 μg target, 170 cm/hr
Method: as §2

Q: `CC(=O)NCC(=O)N[C@@H](CC(=O)O)C(=O)N[C@@H](CC(=O)O)C(=O)N[C@@H](CC(=O)O)C(=O)N[C@@H](Cc1c[nH]cn1)C(=O)N[C@H]1CSSC[C@@H](C(=O)N2CCC[C@H]2C(=O)N[C@@H](Cc2c[nH]cn2)C(=O)NCC(=O)N[C@@H](CCC(=O)O)C(=O)N2CCC[C@H]2C(=O)NCC(=O)N2CCC[C@H]2C(=O)N[C@@H](CCC(=O)O)C(=O)NCC(=O)NCC(=O)NCC(=O)N[C@@H](CCCCN)C(N)=O)NC(=O)[C@H](CCC(=O)O)NC(=O)[C@H](CO)NC(=O)[C@H](CC(N)=O)NC(=O)[C@H](Cc2ccccc2)NC(=O)[C@H](Cc2c[nH]c3ccccc23)NC(=O)[C@H](CCC(=O)O)NC(=O)[C@H](CCCNC(=N)N)NC(=O)[C@H](Cc2ccccc2)NC(=O)[C@H](Cc2c[nH]c3ccccc23)NC(=O)[C@H](Cc2ccc(O)cc2)NC1=O` [DX252] (Ac-GDDDHCYWFREWFNSECPHGEPGPEGGGK-NH2; disulfide 6-17 (inferred)) was tested. Which “Capture efficiency, Fc” value (human Fc fragments) did it give?
A: 70%

Q: And the “Capture efficiency, IgG1” value (hIgG1)?
A: 80%

Q: Which “% purity monomeric protein, IgG1” value (human IgG1) does the source give for “Ac-GDRRACSRDWSGALVWCAGHEPGPEGGGK-NH2 (not fully specified (bridges); printed as Ac-GDRRACSRDWSGALVWCAGHEPGPEGGGK-NH2; cysteine pairing not given here) [DX253]” here?
A: 89%

Q: What about the “Initial total dynamic capacity” value (polyclonal human IgG; T=0, ligand density 2.9 μmole/ml) of the same compound?
A: 19.8 mg human IgG per ml affinity resin

Q: And the “% Relative Performance (total capacity vs T=0, 19.8 mg/ml)” value (from here on “% Relative Performance”) (polyclonal human IgG; Total Capacity Cycle Run No. 0)?
A: 100%

Q: What about the “% Relative Performance” value (polyclonal human IgG; Total Capacity Cycle Run No. 26) of the same compound?
A: 93.9%

Q: And the “% Relative Performance” value (polyclonal human IgG; Total Capacity Cycle Run No. 66)?
A: 85.9%

Q: And the “% Relative Performance” value (polyclonal human IgG; Total Capacity Cycle Run No. 86)?
A: 91.4%

Q: What about the “% Relative Performance” value (polyclonal human IgG; Total Capacity Cycle Run No. 96) of the same compound?
A: 87.9%

Q: What about the “Relative performance with respect to total dynamic capacity” value (polyclonal human IgG; after 95 cycles) of the same compound?
A: approximately 90%

Q: “Prot. A: immobilized recombinant Protein A (RepliGen Corp., product no. IPA-400), positive control [reference compound]” was tested. Which “Binding efficiency, goat IgG” value (goat IgG) did it give?
A: moderate

Q: What about the “Binding efficiency, bovine IgG” value (bovine IgG) of the same compound?
A: high
